From patent publication US20110183969A1, “ANTIFUNGAL COMBINATION THERAPY” (priority 2008, published 2011)
Values after ≈ are worked out from the molar mass of the structure shown.

What was measured:
Experiment in all cases: MIC (YAG medium)
Type in all cases: cell-based
[1] = system: Aspergillus fumigatus AF210; settings: YAG medium, MIC banded into grades, AF210; for MIC: Aspergillus fumigatus, read-out: MIC A. fumigatus 210 (grade)
How it was run: (§1)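 Spores grown on Sabouraud agar and diluted in YAG medium (1% glucose, 1% ammonium chloride, 0.5% yeast extract) to final inocula of 1-2×10^4 cfu/mL over a 50-0.05 mg/L drug range. Read by OD485 after 24 hrs at 35° C. MIC (mg/L) is the lowest concentration inhibiting growth >70% versus drug-free control.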

Aspergillus flavus = settings: YAG medium, MIC banded into grades; for MIC: Aspergillus flavus, read-out: MIC A. flavus (grade)
How it was run: as §1

Aspergillus niger = settings: YAG medium, MIC banded into grades; for MIC: Aspergillus niger, read-out: MIC A. niger (grade)
How it was run: as §1

[2] = system: Aspergillus fumigatus AF293; settings: YAG medium, MIC banded into grades, AF293; for MIC: Aspergillus fumigatus, read-out: MIC A. fumigatus (grade)
How it was run: as §1

Aspergillus terreus AT4 = settings: YAG medium, MIC banded into grades, AT4; for MIC: Aspergillus terreus, read-out: MIC A. terreus (grade)
How it was run: as §1

Aspergillus terreus AT49 = settings: YAG medium, MIC banded into grades, AT49; for MIC: Aspergillus terreus, read-out: MIC A. terreus 49 (grade)
How it was run: as §1

Compound	MIC [1]	MIC (Aspergillus flavus)	MIC (Aspergillus niger)	MIC [2]	MIC (Aspergillus terreus AT4)	MIC (Aspergillus terreus AT49)	MIC A. fumigatus 210 (grade) [1]	MIC A. flavus (grade) (Aspergillus flavus)	MIC A. niger (grade) (Aspergillus niger)	MIC A. fumigatus (grade) [2]	MIC A. terreus (grade) (Aspergillus terreus AT4)	MIC A. terreus 49 (grade) (Aspergillus terreus AT49)
O=C(Nc1ccc(N2CCN(c3cc(OCCO)ccn3)CC2)cc1)C(=O)c1c(-c2ccccc2)cc2ccccn12 [Example 89, N-(4-{4-[4-(2-Hydroxy-ethoxy)-pyridin-2-yl]-piperazin-1-yl}-phenyl)-2-oxo-2-(2-phenyl-indolizin-3-yl)-acetamide]	1 to 10 µg/mL (≈ 1.78 to 17.8 µM)	< 1 µg/mL	1 to 10 µg/mL (≈ 1.78 to 17.8 µM)	1 to 10 µg/mL (≈ 1.78 to 17.8 µM)	1 to 10 µg/mL (≈ 1.78 to 17.8 µM)	< 1 µg/mL	–	–	–	–	–	–
Cc1cc(C)nc(N2CCN(c3ccc(NC(=O)C(=O)c4c(-c5ccccc5)cc5ccccn45)cc3)CC2)n1 [Example 44, N-{4-[4-(4,6-Dimethyl-pyrimidin-2-yl)-piperazin-1-yl]-phenyl}-2-oxo-2-(2-phenyl-indolizin-3-yl)-acetamide]	< 1 µg/mL	< 1 µg/mL	< 1 µg/mL	< 1 µg/mL	< 1 µg/mL	< 1 µg/mL	–	–	–	–	–	–
O=C(Nc1ccc(N2CCN(c3ccc(CN4CCOCC4)cn3)CC2)cc1)C(=O)c1c(-c2ccccc2)cc2ccccn12 [Example 77, N-{4-[4-(5-morpholin-4-yl-methyl-pyridin-2-yl)-piperazin-1-yl]-phenyl}-2-oxo-2-(2-phenyl-indolizin-3-yl)-acetamide]	–	–	–	–	–	–	3 (A grade of 3 represents an MIC of less than 1 mg/L)	3 (A grade of 3 represents an MIC of less than 1 mg/L)	3 (A grade of 3 represents an MIC of less than 1 mg/L)	3 (A grade of 3 represents an MIC of less than 1 mg/L)	3 (A grade of 3 represents an MIC of less than 1 mg/L)	3 (A grade of 3 represents an MIC of less than 1 mg/L)
O=C(Nc1ccc(N2CCN(c3cccc(N(CCO)CCO)n3)CC2)cc1)C(=O)c1c(-c2ccccc2)cc2ccccn12 [Example 86, N-[4-(4-{6-[Bis-(2-hydroxy-ethyl)-amino]-pyridin-2-yl}-piperazin-1-yl)-phenyl]-2-oxo-2-[2-phenyl-indolizin-3-yl)-acetamide]	1 to 10 µg/mL (≈ 1.65 to 16.5 µM)	< 1 µg/mL	1 to 10 µg/mL (≈ 1.65 to 16.5 µM)	< 1 µg/mL	1 to 10 µg/mL (≈ 1.65 to 16.5 µM)	1 to 10 µg/mL (≈ 1.65 to 16.5 µM)	–	–	–	–	–	–
O=C(Nc1ccc(N2CCN(c3cccnc3)CC2)cc1)C(=O)c1c(-c2ccccc2)cc2ccccn12 [Example 59, 2-Oxo-2-(2-phenyl-indolizin-3-yl)-N-[4-(4-pyridin-3-yl-piperazin-1-yl)-phenyl]-acetamide]	< 1 µg/mL	< 1 µg/mL	< 1 µg/mL	< 1 µg/mL	< 1 µg/mL	< 1 µg/mL	–	–	–	–	–	–
Cc1cc(C)nc(N2CCN(c3ccc(NC(=O)C(=O)c4c(C(C)(C)C)cc5ccccn45)cc3)CC2)c1 [Example 62, 2-(2-tert-Butyl-indolizin-3-yl)-N-{4-[4-(4,6-dimethyl-pyridin-2-yl)-piperazin-1-yl]-phenyl}-2-oxo-acetamide]	> 10 µg/mL	> 10 µg/mL	> 10 µg/mL	> 10 µg/mL	1 to 10 µg/mL (≈ 1.96 to 19.6 µM)	> 10 µg/mL	–	–	–	–	–	–
Cc1cc(C)nc(N(C)CCOc2ccc(NC(=O)C(=O)c3c(-c4ccccc4)cc4ccccn34)cc2)c1 [Example 64, N-(4-{2-[(4,6-Dimethyl-pyridin-2-yl)-methyl-amino]-ethoxy}-phenyl)-2-oxo-2-(2-phenyl-indolizin-3-yl)-acetamide]	< 1 µg/mL	< 1 µg/mL	< 1 µg/mL	< 1 µg/mL	< 1 µg/mL	< 1 µg/mL	–	–	–	–	–	–
COCCOCCOc1cc(C)nc(N2CCN(c3ccc(NC(=O)C(=O)c4c(-c5ccccc5)cc5ccccn45)cc3)CC2)c1 [Example 76, N-[4-(4-{4-[2-(2-methoxy-ethoxy)-ethoxy]-6-methyl-pyridin-2-yl}-piperazin-1-yl)-phenyl]-2-oxo-2-(2-phenyl-indolizin-3-yl)-acetamide]	< 1 µg/mL	< 1 µg/mL	< 1 µg/mL	< 1 µg/mL	< 1 µg/mL	< 1 µg/mL	–	–	–	–	–	–
Cc1cc(C)nc(NCCN(C)c2ccc(NC(=O)C(=O)c3c(-c4ccccc4)cc4ccccn34)cc2)c1 [Example 69, N-(4-{[2-(4,6-dimethyl-pyridin-2-ylamino)-ethyl]-methyl-amino}-phenyl)-2-oxo-2-(2-phenyl-indolizin-3-yl)-acetamide]	< 1 µg/mL	< 1 µg/mL	< 1 µg/mL	< 1 µg/mL	< 1 µg/mL	< 1 µg/mL	–	–	–	–	–	–
O=C(Nc1ccc(-c2cocn2)cc1)C(=O)c1c(-c2ccc(-c3ccccc3)cc2)cc2ccccn12 [Example 85, 2-(2-Biphenyl-4-yl-indolizin-3-yl)-N-(4-oxazol-4-yl-phenyl)-2-oxo-acetamide]	> 10 µg/mL	< 1 µg/mL	> 10 µg/mL	> 10 µg/mL	< 1 µg/mL	< 1 µg/mL	–	–	–	–	–	–
CS(=O)(=O)NC(=O)c1ccc(NC(=O)C(=O)c2c(-c3ccccc3)cc3ccccn23)cc1 [Example 5, N-(4-methanesulfonylaminocarbonyl-phenyl)-2-oxo-2-(2-phenyl-indolizin-3-yl)-acetamide]	> 10 µg/mL	> 10 µg/mL	> 10 µg/mL	> 10 µg/mL	> 10 µg/mL	> 10 µg/mL	–	–	–	–	–	–
O=C(Nc1ccc(N2CCN(Cc3ccco3)CC2)cc1)C(=O)c1c(-c2ccccc2)cc2ccccn12 [Example 31, 4-[4-(2-Furan-2-yl-methyl-piperazin-yl)-phenyl]-2-oxo-2-(2-phenyl-indolizin-3-yl)-acetamide]	–	–	–	–	–	–	3 (A grade of 3 represents an MIC of less than 1 mg/L)	3 (A grade of 3 represents an MIC of less than 1 mg/L)	3 (A grade of 3 represents an MIC of less than 1 mg/L)	3 (A grade of 3 represents an MIC of less than 1 mg/L)	3 (A grade of 3 represents an MIC of less than 1 mg/L)	3 (A grade of 3 represents an MIC of less than 1 mg/L)
Cc1cc(C)nc(N2CCN(c3ccc(NC(=O)C(=O)c4c(-c5ccccc5)cc5ccccn45)cc3C)CC2)c1 [Example 82, N-{4-[4-(4,6-Dimethyl-pyridin-2-yl)-piperazin-1-yl]-3-methyl-phenyl}-2-oxo-2-(2-phenyl-indolizin-3-yl)-acetamide]	< 1 µg/mL	< 1 µg/mL	< 1 µg/mL	< 1 µg/mL	< 1 µg/mL	< 1 µg/mL	–	–	–	–	–	–
O=C(Nc1ccc(N2CCN(CCc3ccco3)CC2)cc1)C(=O)c1c(-c2ccccc2)cc2ccccn12 [Example 39, N-{4-[4-(2-Furan-2-yl-ethyl)-piperazin-1-yl]-phenyl}-2-oxo-2-(2-phenyl-indolizin-3-yl)-acetamide]	< 1 µg/mL	< 1 µg/mL	< 1 µg/mL	< 1 µg/mL	< 1 µg/mL	< 1 µg/mL	–	–	–	–	–	–

Further lines, with some results ahead:

MIC [1]	MIC (Aspergillus flavus)	MIC (Aspergillus niger)	MIC [2]	MIC (Aspergillus terreus AT4)	MIC (Aspergillus terreus AT49)	Compound	MIC A. fumigatus 210 (grade) [1]	MIC A. flavus (grade) (Aspergillus flavus)	MIC A. niger (grade) (Aspergillus niger)	MIC A. fumigatus (grade) [2]	MIC A. terreus (grade) (Aspergillus terreus AT4)	MIC A. terreus 49 (grade) (Aspergillus terreus AT49)
< 1 µg/mL	< 1 µg/mL	< 1 µg/mL	< 1 µg/mL	< 1 µg/mL	< 1 µg/mL	Cc1ccnc(N2CCN(c3ccc(NC(=O)C(=O)c4c(-c5ccccc5)cc5ccccn45)cc3)CC2)c1 [Example 49, N-{4-[4-(4-Methyl-pyridin-2-yl)-piperazin-1-yl]-phenyl}-2-oxo-2-(2-phenyl-indolizin-3-yl)-acetamide]	–	–	–	–	–	–
< 1 µg/mL	< 1 µg/mL	< 1 µg/mL	< 1 µg/mL	< 1 µg/mL	< 1 µg/mL	Cc1cc(C)nc(N(C)CCN(C)c2ccc(NC(=O)C(=O)c3c(-c4ccccc4)cc4ccccn34)cc2)c1 [Example 55, N-[4-({2-[(4,6-Dimethyl-pyridin-2-yl)-methyl-amino]-ethyl}-methyl-amino)-phenyl]-2-oxo-2-(2-phenyl-indolizin-3-yl)-acetamide]	–	–	–	–	–	–
< 1 µg/mL	< 1 µg/mL	< 1 µg/mL	< 1 µg/mL	< 1 µg/mL	< 1 µg/mL	O=C(Nc1cnccc1N1CCN(CCc2ccco2)CC1)C(=O)c1c(-c2ccccc2)cc2ccccn12 [Example 38, N-{4-[4-(2-Furan-2-yl-ethyl)-piperazin-1-yl]-pyridin-3-yl}-2-oxo-2-(2-phenyl-indolizin-3-yl)-acetamide]	–	–	–	–	–	–
< 1 µg/mL	< 1 µg/mL	< 1 µg/mL	< 1 µg/mL	< 1 µg/mL	< 1 µg/mL	O=C(Nc1ccc(NCCOc2ccccn2)cc1)C(=O)c1c(-c2ccccc2)cc2ccccn12 [Example 90, 2-Oxo-2-(2-phenyl-indolizin-3-yl)-N-{4-[2-(pyridin-2-yloxy)-ethylamino]-phenyl}-acetamide]	–	–	–	–	–	–
< 1 µg/mL	< 1 µg/mL	< 1 µg/mL	< 1 µg/mL	< 1 µg/mL	< 1 µg/mL	CCc1ccnc(N2CCN(c3ccc(NC(=O)C(=O)c4c(-c5ccccc5)cc5ccccn45)cc3)CC2)c1 [Example 75, N-{4-[4-(4-ethyl-pyridin-2-yl)-piperazin-1-yl]-phenyl}-2-oxo-2-(2-phenyl-indolizin-3-yl)-acetamide]	–	–	–	–	–	–
< 1 µg/mL	< 1 µg/mL	< 1 µg/mL	< 1 µg/mL	< 1 µg/mL	< 1 µg/mL	Cc1cc(C)nc(N2CCN(c3ccc(NC(=O)C(=O)c4c(C5CC5)cc5ccccn45)cc3)CC2)c1 [Example 58, 2-(2-Cyclopropyl-indolizin-3-yl)-N-{4-[4-(4,6-dimethyl-pyridin-2-yl)-piperazin-1-yl]-phenyl}-2-oxo-acetamide]	–	–	–	–	–	–
